Assays:
4-week-old swine = experiment: Blinded, randomized, controlled pediatric swine asphyxial model of cardiac arrest (survival, cerebral blood flow, hemodynamics); format: in vivo
From the text: (§1) Neurologic injury following pediatric cardiac arrest (CA) remains common. Inhaled nitric oxide (iNO) may mitigate cerebral mitochondrial dysfunction, a critical convergence point for secondary brain injury, triggered by CA. It was hypothesized that following asphyxia and cardiac arrest, animals treated with 20 ppm iNO during CPR and four hours post-return of spontaneous circulation (ROSC) will have improved cerebral blood flow (CBF) and improved mitochondrial function as defined by increased respiratory control ratio (RCR) and decreased mitochondrial reactive oxygen species (mtROS) compared with placebo.
(§2) 4-week-old swine received 7 minutes of asphyxia, then ventricular fibrillation. Guideline CPR was performed with compression depth (CD)≥⅓ of the chest diameter and standard epinephrine continued for 10 mins or until ROSC, with protocolized post-ROSC care. In a blinded fashion, subjects were randomized (iNO 20 ppm initiated 1 minute into CPR period, n=10, or placebo, n=10). […] Baseline and continuous CBF measurements were taken using invasive clinical and non-invasive optical instrumentation. Cortical and hippocampal tissue were analyzed by high-resolution respirometry to assess mitochondrial function. T-tests and ANOVA were used where applicable. Longitudinal hemodynamic variables were compared using generalized estimating equations to control for within-subject correlation.

[1] = test system: cerebral mitochondrial function (cortical and hippocampal tissue); experiment: High-resolution respirometry of cortical and hippocampal tissue to assess mitochondrial function after cardiac arrest; format: in vivo, swine; conditions: iNO 20 ppm vs placebo
From the text: as §1, §2

[N]=O [iNO, nitric oxide]
invasive or noninvasive CBF (cerebral blood flow) (4-week-old swine; during CPR and post-ROSC, iNO 20 ppm vs placebo): no significant differences
survived (4-week-old swine; iNO 20 ppm initiated 1 minute into CPR, n=10, placebo 7/10, p=0.21): 10/10
mtROS generation, cortex ([1]; cortex, p<0.001): significantly lower
Cortex RCR (respiratory control ratio) ([1]; cortex, p=0.04): significantly higher
hippocampal RCR (respiratory control ratio) ([1]; hippocampus, p=0.007): significantly higher
mtROS generation, hippocampus ([1]; hippocampus, p=0.03): significantly lower

Reference: US20250228235A1, “METHODS TO IMPROVE ORRGAN VIABILITY” (Mallinckrodt Pharmaceuticals Ireland Limited, priority 2017, published 2025)
